In the CheMixHub viscosity set:

Test: xn = mol fraction of the nth substance listed

C1CCCCCCC1 + Cc1ccccc1
303 K, 101 kPa
Settings | viscosity [mPa·s]
x2 = 0.0411 | 1.726
x2 = 0.1605 | 1.259
x2 = 0.3113 | 1.024
x2 = 0.4874 | 0.8342
x2 = 0.6192 | 0.7126
x2 = 0.7463 | 0.627
x2 = 0.8614 | 0.5716
x2 = 0.9174 | 0.5484
x2 = 0.973 | 0.5311

OC1CCCCC1 + Cc1ccccc1Cl
303.15 K, 101 kPa
Settings | viscosity [mPa·s]
x1 = 0.1104 | 4.861
x1 = 0.2183 | 8.854
x1 = 0.3237 | 12.93
x1 = 0.4268 | 17.06
x1 = 0.5276 | 21.22
x1 = 0.6262 | 25.36
x1 = 0.7227 | 29.4
x1 = 0.8171 | 33.34
x1 = 0.9095 | 37.22

C1CCCCCCC1 + Clc1ccccc1
viscosity [mPa·s], 101 kPa
Settings | x1 = 0.1213 | x1 = 0.2071 | x1 = 0.3009 | x1 = 0.3941 | x1 = 0.5112 | x1 = 0.5915 | x1 = 0.6905 | x1 = 0.799 | x1 = 0.9125
308.15 K | 0.7246 | 0.7681 | 0.8486 | 0.9205 | 1.014 | 1.079 | 1.159 | 1.297 | 1.544
313.15 K | 0.6673 | 0.7011 | 0.7511 | 0.8196 | 0.9056 | 0.951 | 1.042 | 1.197 | 1.402

CCN(CC)CCO + NCCO
Settings | viscosity [mPa·s]
293.15 K, 101 kPa, x2 = 0.9 | 22.75

CC(=O)CC(C)(C)O + O
Settings | viscosity [mPa·s]
298.15 K, 101 kPa, x1 = 0.017 | 1.261
298.15 K, 101 kPa, x2 = 0.2547 | 4.143
298.15 K, 101 kPa, x2 = 0.4824 | 5.758
298.15 K, 101 kPa, x2 = 0.6067 | 6.204
298.15 K, 101 kPa, x2 = 0.7114 | 5.917
298.15 K, 101 kPa, x2 = 0.776 | 5.315
298.15 K, 101 kPa, x2 = 0.8342 | 4.609
298.15 K, 101 kPa, x2 = 0.886 | 3.616
298.15 K, 101 kPa, x2 = 0.9237 | 2.698
298.15 K, 101 kPa, x2 = 0.9508 | 2.022
298.15 K, 101 kPa, x2 = 0.9511 | 2.022
298.15 K, 101 kPa, x2 = 0.9717 | 1.516
303.15 K, 100 kPa, x2 = 0.1 | 2.81
303.15 K, 100 kPa, x2 = 0.2 | 3.27
303.15 K, 100 kPa, x2 = 0.3 | 3.65
303.15 K, 100 kPa, x2 = 0.4 | 4.15
303.15 K, 100 kPa, x2 = 0.5 | 4.55
303.15 K, 100 kPa, x2 = 0.6 | 4.71
303.15 K, 100 kPa, x2 = 0.7 | 4.57
303.15 K, 100 kPa, x2 = 0.8 | 4.08
303.15 K, 100 kPa, x2 = 0.9 | 2.6
323.15 K, 100 kPa, x2 = 0.1 | 1.69
323.15 K, 100 kPa, x2 = 0.2 | 1.82
323.15 K, 100 kPa, x2 = 0.3 | 2.06
323.15 K, 100 kPa, x2 = 0.4 | 2.1
323.15 K, 100 kPa, x2 = 0.5 | 2.3
323.15 K, 100 kPa, x2 = 0.6 | 2.32
323.15 K, 100 kPa, x2 = 0.7 | 2.31
323.15 K, 100 kPa, x2 = 0.8 | 2.09
323.15 K, 100 kPa, x2 = 0.9 | 1.48

CC(=O)O.NCCO + O
viscosity [mPa·s], 101 kPa
Settings | x1 = 0.0075 | x1 = 0.0163 | x2 = 0.8718 | x2 = 0.9099 | x2 = 0.9403 | x2 = 0.9641 | x2 = 0.9743
293.15 K | 1.308 | 1.512 | 7.458 | 4.47 | 2.88 | 2.01 | 1.71
298.15 K | 1.17 | 1.344 | 6.312 | 3.84 | 2.513 | 1.788 | 1.512
303.15 K | 1.05 | 1.218 | 5.448 | 3.354 | 2.232 | 1.584 | 1.35

CCC(N)=O + O
298.15 K, 101 kPa
Settings | viscosity [mPa·s]
x1 = 0.003097 | 0.919
x1 = 0.0145 | 1.025
x1 = 0.03165 | 1.188
x1 = 0.06563 | 1.536
x1 = 0.1487 | 3.03
x1 = 0.3724 | 5.98

CCCCCCCCCCCCCC[P+](CCCCCC)(CCCCCC)CCCCCC.c1ccc2[n-]nnc2c1 + O
Settings | viscosity [mPa·s]
298.15 K, 100 kPa, x2 = 0.728 | 181

CCCCCCCO + O
Settings | viscosity [mPa·s]
298.15 K, 101 kPa, x2 = 0.28 | 5.5

CCC[NH2+]CCO.O=C([O-])c1ccccc1O + O
100 kPa, x2 = 0.14
Settings | viscosity [mPa·s]
298 K | 376.1
303 K | 261.8
313 K | 136.8
323 K | 78.08

CCN(CC)CCO + O
Settings | viscosity [mPa·s]
293.15 K, 101 kPa, x1 = 0.062 | 4.536
298.15 K, 101 kPa, x1 = 0.062 | 3.689
298.15 K, 101.33 kPa, x1 = 0.0039 | 0.991
298.15 K, 101.33 kPa, x1 = 0.008 | 1.104
298.15 K, 101.33 kPa, x1 = 0.0121 | 1.233
298.15 K, 101.33 kPa, x1 = 0.0169 | 1.4
298.15 K, 101.33 kPa, x1 = 0.0261 | 1.752
298.15 K, 101.33 kPa, x1 = 0.0372 | 2.242
298.15 K, 101.33 kPa, x1 = 0.0602 | 3.439
298.15 K, 101.33 kPa, x1 = 0.0909 | 5.404
298.15 K, 101.33 kPa, x1 = 0.1326 | 8.287
298.15 K, 101.33 kPa, x1 = 0.1883 | 11.72
298.15 K, 101.33 kPa, x1 = 0.3136 | 15.25
298.15 K, 101.33 kPa, x1 = 0.4547 | 14.14
298.15 K, 101.33 kPa, x1 = 0.5001 | 13.45
298.15 K, 101.33 kPa, x1 = 0.6638 | 9.491
298.15 K, 101.33 kPa, x1 = 0.758 | 6.903
298.15 K, 101.33 kPa, x1 = 0.8765 | 5.478
298.15 K, 101.33 kPa, x1 = 0.9544 | 4.484
303.15 K, 100 kPa, x1 = 0.06181 | 3
303.15 K, 100 kPa, x1 = 0.09296 | 4.51
303.15 K, 101 kPa, x1 = 0.02641 | 1.53
303.15 K, 101 kPa, x1 = 0.062 | 3.048
303.15 K, 101 kPa, x1 = 0.1117 | 5.23
303.15 K, 101.33 kPa, x1 = 0.0039 | 0.885
303.15 K, 101.33 kPa, x1 = 0.008 | 0.98
303.15 K, 101.33 kPa, x1 = 0.0121 | 1.085
303.15 K, 101.33 kPa, x1 = 0.0169 | 1.219
303.15 K, 101.33 kPa, x1 = 0.0261 | 1.495
303.15 K, 101.33 kPa, x1 = 0.0372 | 1.887
303.15 K, 101.33 kPa, x1 = 0.0602 | 2.82
303.15 K, 101.33 kPa, x1 = 0.0909 | 4.364
303.15 K, 101.33 kPa, x1 = 0.1326 | 6.361
303.15 K, 101.33 kPa, x1 = 0.1883 | 8.984
303.15 K, 101.33 kPa, x1 = 0.3789 | 11.36
303.15 K, 101.33 kPa, x1 = 0.5883 | 8.745
303.15 K, 101.33 kPa, x1 = 0.6638 | 7.615
303.15 K, 101.33 kPa, x1 = 0.758 | 5.577
303.15 K, 101.33 kPa, x1 = 0.8765 | 4.459
303.15 K, 101.33 kPa, x1 = 0.9544 | 3.65
308.15 K, 101 kPa, x1 = 0.062 | 2.552
313.15 K, 100 kPa, x1 = 0.06181 | 2.13
313.15 K, 100 kPa, x1 = 0.09296 | 3.08
313.15 K, 101 kPa, x1 = 0.02641 | 1.18
313.15 K, 101 kPa, x1 = 0.06181 | 2.07
313.15 K, 101 kPa, x1 = 0.062 | 2.165
313.15 K, 101 kPa, x1 = 0.1117 | 3.5
313.15 K, 101.33 kPa, x1 = 0.0039 | 0.723
313.15 K, 101.33 kPa, x1 = 0.008 | 0.791
313.15 K, 101.33 kPa, x1 = 0.0121 | 0.866
313.15 K, 101.33 kPa, x1 = 0.0169 | 0.958
313.15 K, 101.33 kPa, x1 = 0.0261 | 1.149
313.15 K, 101.33 kPa, x1 = 0.0372 | 1.412
313.15 K, 101.33 kPa, x1 = 0.0602 | 2.016
313.15 K, 101.33 kPa, x1 = 0.0909 | 2.912
313.15 K, 101.33 kPa, x1 = 0.1326 | 4.179
313.15 K, 101.33 kPa, x1 = 0.1883 | 5.497
313.15 K, 101.33 kPa, x1 = 0.2629 | 6.627
313.15 K, 101.33 kPa, x1 = 0.3136 | 7.004
313.15 K, 101.33 kPa, x1 = 0.3789 | 7.054
313.15 K, 101.33 kPa, x1 = 0.4547 | 6.685
313.15 K, 101.33 kPa, x1 = 0.6638 | 4.668
313.15 K, 101.33 kPa, x1 = 0.758 | 3.694
313.15 K, 101.33 kPa, x1 = 0.8765 | 3.059
313.15 K, 101.33 kPa, x1 = 0.9544 | 2.639
318.15 K, 101 kPa, x1 = 0.062 | 1.86
323.15 K, 100 kPa, x1 = 0.06181 | 1.6
323.15 K, 101 kPa, x1 = 0.02641 | 0.93
323.15 K, 101 kPa, x1 = 0.06181 | 1.55
323.15 K, 101 kPa, x1 = 0.062 | 1.617
323.15 K, 101 kPa, x1 = 0.1117 | 2.51

CC[C@@H](CO)NCCN[C@@H](CC)CO.Cl.Cl + O
298.15 K, 100 kPa
Settings | viscosity [mPa·s]
x1 = 9.47e-06 | 0.8977
x1 = 1.925e-05 | 0.8983
x1 = 3.721e-05 | 0.8987
x1 = 9.087e-05 | 0.9011
x1 = 0.0001804 | 0.9029
x1 = 0.000898 | 0.9213
x1 = 0.001796 | 0.9443

NCCCC[C@H](N)C(=O)O + O
viscosity [mPa·s], 101 kPa
Settings | 293.15 K | 298.15 K | 303.15 K | 308.15 K | 313.15 K
x1 = 0.006 | 1.261 | 1.129 | 1.016 | 0.9447 | 0.8984
x1 = 0.014 | 1.324 | 1.194 | 1.079 | 1.013 | 0.9598
